{"source": "patent US8895579B2", "about": "“Heterotricyclic AMPA receptor antagonists for treatment of epilepsy, pain, and other neurological disorders and diseases” (Northwestern University, priority 2010, dated 2014)", "key": {"[1]": {"tested_on": "AMPA receptor-mediated EPSCs in primary hippocampal neurons", "assay": "AMPA receptor EPSC charge transfer during spontaneous synaptic bursts, whole-cell voltage clamp, cultured hippocampal neurons", "format": "cell-based", "details": "30 μM", "description": "Experiments involving primary hippocampal neurons were carried out as described previously (Vivithanaporn et al., 2007). Dissociated neurons were cultured from E18 prenatal hippocampi and were used for analysis from between 17 and 28 days in vitro. The extracellular solution was the same as used for recombinant receptor analysis, while the internal solution for voltage clamp recordings contained (in mM) 95 CsF, 25 CsCl, 10 Cs-HEPES, 10 EGTA, 2 NaCl, 2 Mg-ATP, 10 QX-314, 5 TEA. and 5 4-AP (pH 7.3) and the internal solution for current clamp recordings contained (in mM) 120 KMeSO4, 5 KCl, 5 NaCl, 1 MgCl2, 11 Na-HEPES, 10 phosphocreatine, 4 Na-ATP, and 0.3 Na-GTP (pH 7.0). Borosilicate patch electrodes were pulled and fire polished to 3-5 MΩ resistance. Both whole cell current clamp and voltage clamp recordings were performed using an Axopatch 200B amplifier (MDS, Sunnyvale, Calif.) and filtered at 20 kHz. Gigaohm seals were established in voltage clamp mode and, after membrane rupture, the recordings were carried out either in voltage clamp (clamped at Vm=−70 mV) with a […] series resistance, which was compensated to ˜60%, or in current clamp mode ([…]) with the bridge balance was corrected and pipette resistance neutralized. In vitro status epilepticus (SE) was induced as described previously (Deshpande et al., 2007; Pal et al., 1999) and action potentials were recorded in current clamp mode. Briefly for in vitro SE, magnesium-containing external solution was exchanged for external solution without magnesium and supplemented with 2 μM glycine. This solution exchange produced a period of rapid depolarization and increased AP firing, followed by a period of channel inactivation and reduced AP firing. After channel inactivation, neurons characteristically would hyperpolarize to hold at a membrane voltage (Vm) which was depolarized relative to control Vm, with an increase in AP firing frequency. […] External solutions were bath-applied at a flow rate of 1.5-2 ml/minute. After recording a basal control period, IKM compounds were applied for five minutes (10 minutes for in vitro SE experiments) and changes in excitatory post-synaptic current (EPSC) charge transfer or action potential (AP) frequency were analyzed during the last two minutes of IKM application.\nWe first measured the actions of the IKM compounds on the charge transfer during spontaneously occurring, polysynaptic bursts of AMPA receptor excitatory post-synaptic currents (EPSCs) in cultured hippocampal neurons (recorded in the presence of bicuculline methiodide and picrotoxin to inhibit GABAA receptors and D-APV to inhibit NMDA receptors). […] IKM-159 had the greatest inhibitory effect at a fixed concentration of 30 μM, producing a reduction in charge transfer of 65±5% (n=6, p<0.01). […] Despite the polar chemical nature of the compounds, recoveries to basal EPSC charge transfers were minimal."}, "[2]": {"tested_on": "AMPA receptor EPSCs, CA1 pyramidal neurons", "assay": "AMPA receptor EPSCs at Schaffer collateral-CA1 synapses, acute hippocampal slices", "format": "cell-based, mouse", "details": "20 μM", "description": "For recordings from acute hippocampal slices, brains from P15-21 C57Bl/6 mice were sliced transversely (350 μm thickness) in a sucrose slicing solution containing (in mM) 85 NACl, 2.5 KCl, 1.25 NaH2PO4, 25 NaHCO3, 25 glucose, 75 sucrose, 0.5 CaCl2, 4 MgCl2, 0.5 Na ascorbate, 10 μM DL-APV and 100 μM kynurenic acid (pH 7.3). After slicing, the solution was exchanged with an incubation solution containing (in mM) 125 NaCl, 2.4 KCl, 1.2 NaH2PO4, 25 NaHCO3, 25 glucose: 1 CaCl2, 2 MgCl2, 0.5 Na ascorbate, 10 μM DL-APV and 100 μM kynurenic acid (pH 7.3) that was bubbled continuously with CO2-balanced O2 (carbogen). […] Recordings in voltage clamp mode used the CsF/CsCl internal solution and carbogenated external recording solution containing (in mM) 120 NaCl, 2.4 KCl, 2 MgCl2, 1 CaCl2, 25 NaHCO3, 1.2 NaH2PO4, 25 glucose, 10 μM bicuculline methiodide, 50 μM PTX and 50 μM D-APV (pH 7.3). […] NMDA EPSCs were validated by addition of D-APV (50 μM) at the end of each recording. Hippocampal CA1 or CA3 pyramidal cells were voltage clamped at −70 mV and stimulated with a monopolar electrode either the stratum radiatum or stratum lucidum, respectively. IKM compounds were applied for 10 minutes and changes in the peak amplitudes of excitatory post-synaptic currents (EPSCs) and paired-pulse ratios were analyzed during the last two minutes of drug application. EPSC charge transfer, AP frequency, paired-pulse ratio and EPSC peak amplitude were analyzed with Mini-Analysis v6.03 (Synaptosoft, Decatur, Ga.) and Clampfit v10.0 (MDS, Sunnyvale, Calif.) software."}}, "data": [{"smiles": "O=C(O)C[C@@]12O[C@H]3C=CCN[C@H]3C1CN[C@H]2C(=O)O", "note": "(stereo partly drawn) [IKM-159]", "values": [{"measurement": "reduction from control charge transfer", "setting": "[1]", "value": "65±5", "unit": "%"}, {"measurement": "charge transfer during bursts of AMPA receptor-mediated synaptic events as a percent of the charge transfer during the control period", "setting": "[1]; voltage clamped at −70 mV", "value": "35±5", "unit": "%"}, {"measurement": "AMPA EPSC peak amplitude as percent of control peak amplitude", "setting": "[2]", "value": "66±5", "unit": "%"}, {"measurement": "reduction of mean amplitude of AMPA receptor EPSCs", "setting": "[2]", "value": "34±5", "unit": "%"}, {"measurement": "time synaptic amplitudes remained depressed after application", "setting": "[2]", "value": "> 10", "unit": "min"}, {"measurement": "mean AMPA receptor EPSC amplitude in presence of compound", "setting": "[2]; control 560±20 pA", "value": "370±40", "unit": "pA"}]}]}
